Measurements published in article PMC10313368 (The Journal of Clinical Investigation, 2023).
Where “and” joins values, the source holds several entries; their conditions need not be identical. Equal values may be shown once. Read-outs that look alike come from different tables or passages of the source.

Tests used:
[1] = test system: HIF transcriptional activity; details: cell-based reporter assay; read-out: IC50, inhibition of HIF transcriptional activity; cited from earlier work
C57BL/6 mice = experiment: Flash scotopic ERG after a single intraocular injection; format: in vivo, mouse; details: for A wave / B wave: in µV (unit assumed)
Method: Intraocular injections. Intravitreal injections were performed with a PLI-100A Pico-liter Microinjector (Warner Instruments, Harvard Bioscience) using pulled-glass micropipettes. Each micropipette was calibrated to deliver a 1 μl volume on depression of a foot switch. […]
Flash scotopic ERGs. All procedures were performed under dim red light. Mice were dark adapted overnight, anesthetized with ketamine (50 mg/kg) and xylazine (5mg/kg) and pupils were dilated with a topical drop of tropicamide (1%). Scotopic ERG responses were measured using the Celeris ERG stimulator (Diagnosys, Lowell, MA) at flash intensities of 0.025, 0.25, 2.5, 7.96, and 79.06 cd/s/m2. ERGs were measured simultaneously from both eyes with a ground electrode placed into the forehead between the eyes and a reference electrode into the hip. […]

[2] = Mouse pharmacokinetics in retina after intraocular injection (LC-MS/MS); format: in vivo; details: for AUC % Extrapolated / AUClast / Cmax / half-life / Tmax: retina; for half-life / Tmax: C57BL/6, mouse, topical or ocular; for half-life: 280 ng
Method: intraocular injection. Mice (at least 3 mice per time point) were euthanized at 1, 3, 7, or 14 days after injection. For the 280-ng dose, a 10-day time point was added. […]
retina by LC-MS/MS as previously described (5) with the following modifications. Retina tissue samples were homogenized in 200 μL of 1× PBS (pH 7.4) before extraction. The standard curve and quality control samples were prepared in 1× PBS as a surrogate matrix. Retina tissue samples were then quantitated in µM as: nominal concentration (µM) × initial dilution ([tissue weight (mg) + volume of solvent (μl)]/ tissue weight (mg)). For all samples <10 nM, the value was reported as below the limits of detection. If at least on samples was >10 nM and one was <10 nM, then one half that value (5 nM) was imputed to calculate the concentration for that specimen and utilized in the average and standard deviation calculations.
Pharmacokinetic parameters were calculated from mean concentration-time data using noncompartmental methods in Phoenix WinNonlin version 8.3 (Certara, Princeton, NJ, USA). The Cmax and time to Cmax (Tmax) were the observed values. The AUClast was calculated using the log-linear trapezoidal method to the last quantifiable time point. The λz was determined from at least 3 points on the slope of the terminal phase of the concentration-time profile using a 1/y2 weighting factor. The T1/2 was determined by dividing 0.693 by λz. T1/2 was not reported if the correlation coefficient (r2) for λz was less than 0.9.
Bioanalytical method for mouse pharmacokinetics. Retina tissue samples were homogenized in 200 μL of 1× PBS (pH 7.4) before extraction. The standard curve and quality control samples were prepared in 1× PBS as a surrogate matrix for all matrices. Tissue homogenate or PBS (25 μL) was […]
respectively. Dwell time was 150 milliseconds. […]
constructed from the peak area ratio of the analyte to the peak area of its internal standard (EXP-3179) using the least-squares quadratic regression analysis with 1/x2 weight over the range of 10-2,110 nM with dilutions of up to 1:10 (v/v). […]

[3] = test system: hiPSC-derived 3D retinal organoids; experiment: qPCR of VEGF and ANGPTL4 mRNA in D120 hiPSC-derived retinal organoids in 1% O2; format: cell-based, human; details: for Vegfa mRNA / Angptl4 mRNA: 12 hours, 20% O2 about 1, replicates; for Vegfa mRNA: Figure 9F; for Angptl4 mRNA: Figure 9G
Method: An hiPSC line derived from CD34^+ cord blood was used in this study (A18945, Thermo Fisher Scientific) ([70]). Undifferentiated hiPSCs and derived retinal organoids were routinely tested for mycoplasma contamination by PCR. Cell culture, retinal differentiation, and organoid formation were conducted as previously described ([71]). Retinal organoids at D120 were used for experiments. […]
Reverse transcription and quantitative real-time PCR. Total RNA was isolated from cultured cells or retinas with PureLinkTM RNA Mini Kit (Invitrogen #12183025), and cDNA was prepared with MuLV Reverse Transcriptase (Applied Biosystems). Quantitative real-time PCR was performed with Power SYBR Green PCR Master Mix (Applied Biosystems) and MyiQ Real-Time PCR Detection System (Bio-Rad). Normalization was done using cyclophilin A for mouse tissue and human cell lines. Primers are listed in Supplemental Table 2. […]

In the case of `Brc1ccc2c(-c3csc(-c4c[nH]c5c(Br)cccc45)n3)c[nH]c2c1` [32-134D, 4-(6-bromo-1H-indol-3-yl)-2-(7-bromo-1H-indol-3-yl)thiazole], the IC50 [1] is given as under 4 µM, the “retinal toxicity on ERG” value (C57BL/6 mice; 32-134D 70, 140, 210, 350 ng single intraocular injection, up to 5 weeks) is given as “did not observe any evidence of retina toxicity” and the A wave (C57BL/6 mice; DAY7, flash 0.25, 140NG) is given as 84.49 and 88.87. The A wave (C57BL/6 mice; DAY7, flash 2.5, 140NG) was 138.4 and 109.3, the A wave (C57BL/6 mice; DAY7, flash 7.96, 140NG) was 181.6 and 123.7 and the B wave (C57BL/6 mice; DAY7, flash 7.96, 140NG) was 337.9. The B wave (C57BL/6 mice; DAY7, flash 79.06, 140NG) was 327.7, the B wave (C57BL/6 mice; DAY14, flash 0.025, 70NG) was 149.2 and 168.6 and 209.2 and 152.4 and 190.2 and 184.53 and 268.4 and the B wave (C57BL/6 mice; DAY14, flash 0.025, 140NG) was 158.1. For the same compound, the A wave (C57BL/6 mice; DAY14, flash 0.25, 70NG) was 69.71 and 75.03 and 99.56 and 75.32 and 55.14 and 80.45 and 95.29, the B wave (C57BL/6 mice; DAY14, flash 0.25, 70NG) was 204.5 and 293.7 and 273.9 and 206.4 and 256.8 and 214.7 and 313 and the A wave (C57BL/6 mice; DAY14, flash 0.25, 140NG) was 76.62 and 123.2. For the same compound, the B wave (C57BL/6 mice; DAY14, flash 0.25, 140NG) was 209.6, the A wave (C57BL/6 mice; DAY14, flash 2.5, 70NG) was 116.4 and 108.2 and 136.4 and 117.2 and 152.87 and 100.6 and 158.9 and the B wave (C57BL/6 mice; DAY14, flash 2.5, 70NG) was 215 and 216 and 281.6 and 293.7 and 254.6 and 294.3 and 388.9. The A wave (C57BL/6 mice; DAY14, flash 2.5, 140NG) was 128 and 175.3, the B wave (C57BL/6 mice; DAY14, flash 2.5, 140NG) was 257.2 and the A wave (C57BL/6 mice; DAY14, flash 7.96, 70NG) was 135.7 and 102.5 and 159.1 and 157 and 172.6 and 118.4 and 175.8. For the same compound, the B wave (C57BL/6 mice; DAY14, flash 7.96, 70NG) was 256.6 and 296.2 and 276.2 and 330.1 and 232.5 and 333.4 and 391, the A wave (C57BL/6 mice; DAY14, flash 7.96, 140NG) was 138.7 and 208.7 and the B wave (C57BL/6 mice; DAY14, flash 7.96, 140NG) was 262.8. The A wave (C57BL/6 mice; DAY14, flash 79.06, 70NG) was 161.6 and 123.9 and 177.3 and 180.4 and 182.2 and 135.3 and 174.3, the B wave (C57BL/6 mice; DAY14, flash 79.06, 70NG) was 232.9 and 293.2 and 237.9 and 340.7 and 256.5 and 324.6 and 372.7 and the A wave (C57BL/6 mice; DAY14, flash 79.06, 140NG) was 168.4 and 191. For the same compound, the B wave (C57BL/6 mice; DAY14, flash 79.06, 140NG) was 300.7, the B wave (C57BL/6 mice; DAY21, flash 0.025, 140NG) was 129.1 and the A wave (C57BL/6 mice; DAY21, flash 0.25, 70NG) was 76.13 and 75.12 and 97.06 and 99.13 and 63.13 and 91.99 and 97.31. For the same compound, the B wave (C57BL/6 mice; DAY21, flash 0.25, 70NG) was 236.1 and 170.7 and 170.8 and 248.9 and 189.8 and 286.3 and 297.9, the B wave (C57BL/6 mice; DAY21, flash 0.25, 140NG) was 175.7 and the A wave (C57BL/6 mice; DAY21, flash 2.5, 70NG) was 112.6 and 110.6 and 152.6 and 169.8 and 108.4 and 159.7 and 165.1. For the same compound, the B wave (C57BL/6 mice; DAY21, flash 2.5, 70NG) was 298.7 and 211.6 and 203 and 296 and 196.2 and 332.2 and 364.3, the A wave (C57BL/6 mice; DAY21, flash 7.96, 70NG) was 105.9 and 120.3 and 162.9 and 176.2 and 125.7 and 175.1 and 172 and the B wave (C57BL/6 mice; DAY21, flash 7.96, 70NG) was 315.1 and 232.4 and 223 and 328.4 and 215.9 and 350.1 and 374.6. For the same compound, the A wave (C57BL/6 mice; DAY21, flash 7.96, 140NG) was 126.8 and 195.8, the A wave (C57BL/6 mice; DAY21, flash 79.06, 70NG) was 108.1 and 130.3 and 166.3 and 180.2 and 139.8 and 172.8 and 188 and the B wave (C57BL/6 mice; DAY21, flash 79.06, 70NG) was 286.8 and 226.3 and 206.8 and 273.5 and 273.2 and 297.6 and 298.6. For the same compound, the A wave (C57BL/6 mice; DAY21, flash 79.06, 140NG) was 148.7 and 231, the A wave (C57BL/6 mice; DAY28, flash 2.5, 140NG) was 148.8 and 128.1 and the A wave (C57BL/6 mice; DAY28, flash 7.96, 70NG) was 118.7 and 202.6 and 114.3 and 192.2 and 119.5 and 102.4 and 173.1. For the same compound, the A wave (C57BL/6 mice; DAY28, flash 7.96, 140NG) was 168.7, the A wave (C57BL/6 mice; DAY28, flash 79.06, 70NG) was 125.3 and 187.6 and 118.9 and 161.8 and 121.28 and 110 and 160.6 and the A wave (C57BL/6 mice; DAY28, flash 79.06, 140NG) was 153. For the same compound, the A wave (C57BL/6 mice; DAY35, flash 2.5, 140NG) was 66, the A wave (C57BL/6 mice; DAY35, flash 79.06, 70NG) was 74.06 and 95.89 and 102 and 95.42 and 92.65 and 81.18 and 82.72 and the B wave (C57BL/6 mice; DAY35, flash 79.06, 70NG) was 112.4 and 198.3 and 140.3 and 150.2 and 167.5 and 220.3 and 163. For the same compound, the “AUC % Extrapolated” value ([2]; 70 ng eyeball) was 21.1%, the AUClast ([2]; 70 ng eyeball) was 72.3 nmol·days/g and the Cmax ([2]; 70 ng eyeball) was 19.1 nmol/g. For the same compound, the “AUC % Extrapolated” value ([2]; 280 ng eyeball) was 2.2%, the AUClast ([2]; 280 ng eyeball) was 147 nmol·days/g and the Cmax ([2]; 280 ng eyeball) was 18 nmol/g. For the same compound, the half-life ([2]; 280 ng eyeball, read-out: T1/2 (converted)) was 42.2 h, the half-life ([2]; single 280 ng intraocular injection, read-out: t1/2 in retina (converted)) was 43.2 h and the Tmax ([2]; 70 ng eyeball) was 24 h. The Tmax ([2]; 280 ng eyeball) was 24 h, the “Cmax in neurosensory retina” value ([2]; single 70 ng intraocular injection) was 19.1 nmol/g and the AUClast in retina ([2]; single 70 ng intraocular injection, over 14 days) was 72.3 nmol·days/g. The “Cmax in neurosensory retina” value ([2]; single 280 ng intraocular injection) was 18 nmol/g, the AUClast in retina ([2]; single 280 ng intraocular injection, through 14 days) was 147 nmol·days/g and the “IC50 as used for time above IC50” value ([2]; threshold in the pharmacokinetic calculation) was 3.51 nmol/g. The “expression of HIF-regulated vasoactive mediators (in words)” value ([3]; 1% O2 12 hours, 32-134D) was “effectively prevented”, the “Vegfa mRNA” value ([3]; 1% O2+32-134D 1μM) was 2.046 and 2.085 and 1.848 and the “Angptl4 mRNA” value ([3]; 1% O2+32-134D 1μM) was 5.344 and 5.73 and 5.861. For the same compound, the “Vegfa mRNA” value ([3]; 1% O2+32-134D 10μM) was 0.2069 and 0.1725 and 0.1726 and the “Angptl4 mRNA” value ([3]; 1% O2+32-134D 10μM) was 0.1373 and 0.1287 and 0.1338.
